Key:
[1] = test system: BM-derived Schwann cells; experiment: Co-culture of BM-derived Schwann cells with JAK2V617F+ BM LSK cells, apoptosis by TUNEL; type: cell-based, mouse; conditions: IL1ra 200 ng ml-1, 24 h co-culture
Procedure: For co-culture of BM-derived Schwann cells and MSCs with BM LSK cells from control and mutant mice, neonatal BM CD45− CD31− Ter119− Nes-GFP+ Pdgfrα−/+ cells containing Schwann cell precursors and MSCs, respectively (Isern J et al., submitted), were sorted and cultured under Schwann cell differentiation conditions, as previously described 34, or mesenchymal culture conditions, in MEMα supplemented with 10 ng ml-1 PDGFAB, 15% FBS. Both were co-cultured for 24 h with primary BM LSK cells isolated by FACS from control or mutant mice. Schwann cells derived from sorted GFP+ Pdgfrα− BM precursors were additionally incubated with IL1ra (200 ng ml-1) for the co-culture period. After 24 h of co-culture, haematopoietic cells were washed away and the remaining adherent Schwann cells were fixed and analysed for apoptosis by TUNEL.

[2] = test system: mice transplanted with MPN BM cells (JAK2-V617F); experiment: In vivo pharmacological treatments of mice transplanted with MPN (Mx1-cre;JAK2-V617F) BM cells; design: species or system mouse
Excerpt: In Mx1-cre; JAK2-V617F double-transgenic mice, expression of the human JAK2-V617F mutation is driven by the endogenous Jak2 promoter and can be conditionally expressed in haematopoietic cells upon Myxovirus resistance-1 (Mx1)-driven Cre recombinase activation by polyinosine-polycytosine (plpC). PlpC-induced transgenic mice and wild-type mice transplanted with BM cells from these mice develop progressive symptoms of PV19,20.
Age-matched, female wild-type C57BL/6J or Nes-gfp mice were used as recipients in bone marrow (BM) transplantation assays and for in vivo pharmacological treatments. […] Vehicle (saline solution) daily injections were performed in the same way. Unless indicated, treatment was initiated 4 weeks posttransplant, when animals evidenced peripheral blood signs of MPN. Mice were randomly distributed prior to treatment initiation, and disease development was monitored over time in peripheral blood samples, using an automated blood counter. […] The neuroprotective drug 4-methylcatechol (10 μg kg-1, i.p.) was injected once daily. The JAK inhibitor INCB018424 (S-Ruxilitinib, Abmole Bioscience) was administered by oral gavage (30 mg kg-1, twice per day separated 10-12 hours) in 0.5% hydroxypropylmethylcellulose (Sigma) after solubilisation in DMSO. The IL-1 receptor antagonist (Kineret, Sobi, Stockholm, Sweden) was administered by subcutaneous osmotic pumps (Alzet) infusing a continuous dosing of 40 mg kg-1 per day. Mice were sacrificed at different time points and subjected to complete necropsy; BM and spleen were analysed by histology and flow cytometry; femora and skull were used for immunostainings, and haematopoietic and stromal cells were additionally used for functional assays ex vivo.
BM cell extraction, flow cytometry and fluorescence-activated cell sorting For haematopoietic cell recovery, bones were crushed in a mortar, filtered through a 40-μm mesh to obtain single cell suspensions, and depleted of red blood cells by lysis in 0.15 M NH4Cl for 10 min at 4° C. Spleen samples were homogenised and filtered prior to lysis; blood samples were directly lysed. Cells (1-2×10^6 cells per sample) were incubated with the appropriate dilution (2-5 μg ml-1) of fluorescent antibody conjugates and 4′,6-diamidino-2-phenylindole (DAPI) for dead cell exclusion, and analysed on LSRFortessa flow cytometer (BD Biosciences, Franklin Lakes, N.J.) equipped with FACSDiva Software (BD Biosciences). […] Biotinylated antibodies were detected with fluorochrome-conjugated streptavidin (BD Biosciences). Phenotypic populations of HSC were defined as long-term haematopoietic stem cells (HSCs) (lin− Sca1+c-kit+ (LSK) CD34− Flt3−), short-term HSCs (LSK CD34+ Flt3−) and multipotent progenitors (MPP) (LSK CD34+ Flt3+).
Cells were filtered through a 40-μm mesh and erythrocytes were lysed as previously described. The resulting bone marrow-enriched cell suspensions were pelleted, washed and resuspended in PBS buffer containing 2% foetal calf serum (FCS) for further analyses. […] BM stromal CD45− CD31− Ter119− cells were further purified according to GFP fluorescence using a FACS Aria cell sorter (BD Bioscience). For the determination of apoptotic cells, samples were washed with PBS after surface antibody staining and subsequently stained with Annexin V-Pacific Blue and SYTOX AADvanced (Invitrogen, Life Technologies, Paisley, UK). For functional assays, cells were enriched by immunomagnetic depletion using biotinylated CD45 and Ter119. For immunophenotypic characterisation, total BM samples were studied by flow cytometry using the following additional antibodies: CD63 (NVG-2), CD105 (MJ7/18), CD140a (APA5), Vcam, CD51 (RMV-7), all from Biolegend; and CD90.2 from BD Biosciences.
Immunofluorescence staining of cryostat sections was performed. For whole mount staining of the calvaria, all incubation times were extended. The antibodies used were TH (Rabbit pAb, Millipore) and GFAP (Rabbit pAb, Dako).

[3] = test system: CD45+ haematopoietic cells from BM of Nes-gfp;Mx1-cre;JAK2-V617F mice and control littermates; experiment: Colony-forming units in culture (CFU-C) with drug added in vitro; type: cell-based, mouse; conditions: scored after one week in culture
Procedure: Colony-forming units in culture (CFU-C) assay was performed. […] Colonies of more than 50 cells were scored after 7 days of incubation at 37° C., 5% CO2, 20% O2 in a water-jacketed incubator. For CFU-F assays, BM CD45− Ter119− cells were plated into 6-well dishes and cultured in maintenance medium (α-MEM, 15% FCS with antibiotics). After 10-12 days in culture, adherent cells were fixed with 100% methanol and stained with Giemsa stain (Sigma) to reveal fibroblastic clusters. Colonies with more than 50 cells were scored as CFU-F.

[4] = cited from earlier work
[5] = biological target: murine receptor (β3-adrenergic) (Mus musculus, UniProt P25962); conditions: cited from earlier work
[6] = IL1ra 40 mg kg-1 per day, subcutaneous osmotic pumps, 18 weeks

Chain of murine receptor (β3-adrenergic) (P25962 whole entry): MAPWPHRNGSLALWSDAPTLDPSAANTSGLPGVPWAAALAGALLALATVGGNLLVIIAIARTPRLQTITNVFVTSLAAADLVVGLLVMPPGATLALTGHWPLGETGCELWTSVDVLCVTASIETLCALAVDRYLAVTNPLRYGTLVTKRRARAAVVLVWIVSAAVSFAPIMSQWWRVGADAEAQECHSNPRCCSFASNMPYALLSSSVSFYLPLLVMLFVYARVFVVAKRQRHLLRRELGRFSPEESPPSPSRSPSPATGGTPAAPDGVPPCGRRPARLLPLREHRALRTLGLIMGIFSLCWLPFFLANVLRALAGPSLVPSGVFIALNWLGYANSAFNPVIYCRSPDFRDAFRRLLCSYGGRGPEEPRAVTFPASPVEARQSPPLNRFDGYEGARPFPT

For “interleukin-1 receptor antagonist: IL-1 receptor antagonist (Kineret, Sobi, Stockholm, Sweden)”, the “3-fold higher apoptotic rate of Schwann cells co-cultured with JAK2V617F+ haematopoietic progenitors” value [1] was “blocked”, the “BM MSC frequency” value [2, 6] was “increased” and the “caspase-1 mRNA expression in haematopoietic progenitors” value [2, 6] was “reduced”. For the same compound, the platelet counts ([2]; IL1ra 40 mg kg-1 per day, subcutaneous osmotic pumps, 18 weeks, starting 2 weeks after transplant) was “reduced”.
With Cc1ccc(O)c(O)c1 [4-methylcatechol] the “growth of cultured haematopoietic progenitors (CFU-C)” value [3] was “neither 4-methylcatechol nor BRL37344 affected”, the “incipient MPN signs (haematological parameters)” value ([2]; 8 weeks after transplantation, treatment for the last 4 weeks) was “improved” and the “mutant haematopoietic progenitor expansion” value ([2]; early treatment, 4 weeks, BRL37344 2 mg kg-1 twice a day, 4-methylcatechol 10 μg kg-1 once daily) was “prevented”. The “BM Schwann cells (Gfap immunostaining)” value ([2]; symptomatic MPN mice, 4-methylcatechol 10 μg kg-1 i.p. once daily over a month) was “preserved” and the MPN-associated neutrophilia ([2]; symptomatic MPN mice, treatment started 4 weeks after transplantation, BRL37344 2 mg kg-1 i.p. twice a day, 4-methylcatechol 10 μg kg-1 i.p. once daily) was “prevented”.
For Nc1nc(CC(=O)Nc2ccc(CCNC[C@H](O)c3ccccc3)cc2)cs1 [Mirabegron], the solubility [4] is given as “poor”, the MPN progression ([2]; BRL37344 or Mirabegron 2 mg kg-1 i.p. twice a day) is given as “delays” and the “several MPN markers (blood counts)” value ([2]; Mirabegron 2 mg kg-1 i.p. twice a day, last two weeks, 8 weeks after transplantation, to lower extent than BRL37344) is given as “improved”. For the same compound, the “affinity for the murine receptor” value [5] was “relatively low”.
